Data as given in the supplement of paper PMC10307832.

Legend:
Experiment in all cases: relative viability (nuclei count vs DMSO), 5 days (fraction); higher = more cells survive
[1] = compound: C#Cc1cccc(Nc2ncnc3cc(OC)c(OCCCCCCC(=O)NO)cc23)c1 [CUDC-101] + Cc1nc(NC(=O)N2CCC[C@H]2C(N)=O)sc1-c1ccnc(C(C)(C)C(F)(F)F)c1 [Alpelisib] (partner 2 µM)
Outline: (§1)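 A single step with final 0.05% Triton X-100, 1% formaldehyde and 1 ug/ml Hoechst fixed the cells and stained nuclei 5 days after treatment. Lung cancer cell lines in 1536-well plates had been treated by pin tool the day after seeding with one drug alone or a fixed anchor-drug dose plus five library-drug doses (not always all listed) in √10 steps, and nuclei were counted on 4× images. Relative viability is the ratio of nuclei in treated wells to nuclei in vehicle wells, taken as the median of duplicate plates.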

[2] = compound: C1=CC=C2C(=C1)N=C(S2)C(C#N)C3=NC(=NC=C3)NCCC4=CN=CC=C4 + COc1cc2c(Oc3ccc(NC(=O)C4(C(=O)Nc5ccc(F)cc5)CC4)cc3F)ccnc2cc1OCCCN1CCOCC1 [Foretinib] (partner 0.25 µM)
Outline: as §1

[3] = compound: C1=CC=C2C(=C1)N=C(S2)C(C#N)C3=NC(=NC=C3)NCCC4=CN=CC=C4 + C[C@@H](Oc1cc(-c2cnn(C3CCNCC3)c2)cnc1N)c1c(Cl)ccc(F)c1Cl [Crizotinib] (partner 1 µM)
Outline: as §1

[4] = compound: COc1cc(N2CCC(N3CCN(C)CC3)CC2)ccc1Nc1ncc(Cl)c(Nc2ccccc2S(=O)(=O)C(C)C)n1 [NVP-TAE684] + COc1cccc2cc(-c3nc([C@H]4CC[C@H](C(=O)O)CC4)n4ncnc(N)c34)[nH]c12 [OSI-027] (partner 0.5 µM)
Outline: as §1

Cell Line | relative viability ([1]; first compound 0.01 µM) | relative viability ([1]; first compound 0.03162 µM) | relative viability ([1]; first compound 0.1 µM) | relative viability ([1]; first compound 0.3162 µM) | relative viability ([1]; first compound 1 µM) | relative viability ([2]; first compound 0.005 µM) | relative viability ([2]; first compound 0.01581 µM) | relative viability ([2]; first compound 0.1581 µM) | relative viability ([2]; first compound 0.5 µM) | relative viability ([3]; first compound 0.005 µM) | relative viability ([3]; first compound 0.01581 µM) | relative viability ([3]; first compound 0.05 µM) | relative viability ([3]; first compound 0.1581 µM) | relative viability ([3]; first compound 0.5 µM) | relative viability ([4]; first compound 0.2 µM) | relative viability ([4]; first compound 0.6325 µM) | relative viability ([4]; first compound 2 µM) | relative viability ([2]; first compound 0.05 µM)
NCI-H2347 | 1.09 | 1.08 | 1.09 | 1.11 | 1.03 | 1.1 | 0.821 | 0.662 | 1.17 | 0.724 | 0.669 | 0.533 | 0.699 | 0.723 | 0.403 | 0.368 | 0.301 | 
HCC-15 | 0.875 | 0.888 | 0.909 | 0.909 | 0.763 | 0.853 | 1.07 | 1.2 | 1.01 | 0.734 | 0.851 | 0.833 | 1.02 | 0.776 | 0.631 | 0.525 | 0.381 | 0.984
NCI-H23 | 0.775 | 0.592 | 0.727 | 0.652 | 0.718 | 0.83 | 0.995 | 1.02 | 1.07 |  | 0.602 | 0.433 | 0.544 | 0.35 | 0.666 | 0.544 | 0.236 | 0.873
LC-2-ad | 0.896 | 0.908 | 0.844 | 0.73 | 0.433 | 0.858 | 0.994 | 0.921 | 0.828 | 0.413 |  | 0.425 | 0.502 | 0.414 | 0.804 | 0.673 | 0.317 | 0.883
LCLC-97TM1 | 0.261 | 0.266 | 0.235 | 0.233 | 0.15 | 0.942 | 0.96 | 0.956 | 0.983 | 0.28 | 0.394 | 0.368 | 0.326 | 0.256 | 0.52 | 0.473 | 0.14 | 0.899
